According to PubChem BioAssay (NCI):
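Interpolation was linear, between the two tested concentrations surrounding the appropriate level; five concentrations were tested over 48 hours in 96-well plates. TGI marks complete inhibition of growth.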

Columns and labels:
Assay in all cases: NCI tumour cell line growth inhibition, 48 h
RXF 393 renal = tested on: RXF 393 renal
U251 CNS = tested on: U251 CNS
M14 melanoma = tested on: M14 melanoma
ACHN renal = tested on: ACHN renal
SK-MEL-2 melanoma = tested on: SK-MEL-2 melanoma
UACC-62 melanoma = tested on: UACC-62 melanoma
RPMI-8226 leukemia = tested on: RPMI-8226 leukemia
OVCAR-3 ovarian = tested on: OVCAR-3 ovarian
786-0 renal = tested on: 786-0 renal
TK-10 renal = tested on: TK-10 renal
HCT-15 colon = tested on: HCT-15 colon
SN12C renal = tested on: SN12C renal
MCF7 breast = tested on: MCF7 breast
OVCAR-8 ovarian = tested on: OVCAR-8 ovarian
SK-MEL-5 melanoma = tested on: SK-MEL-5 melanoma
OVCAR-5 ovarian = tested on: OVCAR-5 ovarian
SK-OV-3 ovarian = tested on: SK-OV-3 ovarian
PC-3 prostate = tested on: PC-3 prostate
NCI/ADR-RES ovarian = tested on: NCI/ADR-RES ovarian
LOX IMVI melanoma = tested on: LOX IMVI melanoma
MDA-MB-231 breast = tested on: MDA-MB-231 breast
MDA-N = tested on: MDA-N
UO-31 renal = tested on: UO-31 renal
NCI-H522 lung = tested on: NCI-H522 lung
HCT-116 colon = tested on: HCT-116 colon
MOLT-4 leukemia = tested on: MOLT-4 leukemia
HCC-2998 colon = tested on: HCC-2998 colon
HS 578T breast = tested on: HS 578T breast
MALME-3M melanoma = tested on: MALME-3M melanoma
BT-549 breast = tested on: BT-549 breast
SNB-75 CNS = tested on: SNB-75 CNS
DU-145 prostate = tested on: DU-145 prostate
CCRF-CEM leukemia = tested on: CCRF-CEM leukemia
KM12 colon = tested on: KM12 colon
SW-620 colon = tested on: SW-620 colon
UACC-257 melanoma = tested on: UACC-257 melanoma
EKVX NSCLC = tested on: EKVX NSCLC
NCI-H226 lung = tested on: NCI-H226 lung
IGROV1 ovarian = tested on: IGROV1 ovarian
A549 NSCLC = tested on: A549 NSCLC
HL-60(TB) leukemia = tested on: HL-60(TB) leukemia
K-562 leukemia = tested on: K-562 leukemia
SF-295 CNS = tested on: SF-295 CNS
T-47D breast = tested on: T-47D breast
MDA-MB-435 = tested on: MDA-MB-435
SF-268 CNS = tested on: SF-268 CNS
SNB-19 CNS = tested on: SNB-19 CNS
NCI-H23 lung = tested on: NCI-H23 lung
CAKI-1 renal = tested on: CAKI-1 renal
OVCAR-4 ovarian = tested on: OVCAR-4 ovarian
HOP-92 NSCLC = tested on: HOP-92 NSCLC
A498 renal = tested on: A498 renal
SK-MEL-28 melanoma = tested on: SK-MEL-28 melanoma
HOP-62 NSCLC = tested on: HOP-62 NSCLC
COLO 205 colon = tested on: COLO 205 colon
NCI-H460 lung = tested on: NCI-H460 lung
HT29 colon = tested on: HT29 colon
SR leukemia = tested on: SR leukemia
SF-539 CNS = tested on: SF-539 CNS

Measured: TGI

O=C(O)CCSCc1ccc(I)cc1
> 100 µM: RXF 393 renal | U251 CNS | M14 melanoma | ACHN renal | SK-MEL-2 melanoma | UACC-62 melanoma | RPMI-8226 leukemia | OVCAR-3 ovarian | 786-0 renal | TK-10 renal | HCT-15 colon | SN12C renal | MCF7 breast | OVCAR-8 ovarian | SK-MEL-5 melanoma | OVCAR-5 ovarian | SK-OV-3 ovarian | PC-3 prostate | NCI/ADR-RES ovarian | LOX IMVI melanoma | MDA-MB-231 breast | MDA-N | UO-31 renal | NCI-H522 lung | HCT-116 colon | MOLT-4 leukemia | HCC-2998 colon | HS 578T breast | MALME-3M melanoma | BT-549 breast | SNB-75 CNS | DU-145 prostate | CCRF-CEM leukemia | KM12 colon | SW-620 colon | UACC-257 melanoma | EKVX NSCLC | NCI-H226 lung | IGROV1 ovarian | A549 NSCLC | HL-60(TB) leukemia | K-562 leukemia | SF-295 CNS | T-47D breast | MDA-MB-435 | SF-268 CNS | SNB-19 CNS | NCI-H23 lung | CAKI-1 renal | OVCAR-4 ovarian | HOP-92 NSCLC | A498 renal | SK-MEL-28 melanoma | HOP-62 NSCLC | COLO 205 colon | NCI-H460 lung | HT29 colon

CC(=O)O[C@H]1CC[C@@]2(C)C(=CC[C@@H]3[C@@H]2CC[C@]2(C)Nc4c(cnn4S(C)(=O)=O)C[C@@H]32)C1
> 100 µM: U251 CNS | SK-MEL-2 melanoma | UACC-62 melanoma | RPMI-8226 leukemia | OVCAR-3 ovarian | HCT-15 colon | SN12C renal | MCF7 breast | OVCAR-8 ovarian | OVCAR-5 ovarian | SK-OV-3 ovarian | PC-3 prostate | NCI/ADR-RES ovarian | MDA-MB-231 breast | MDA-N | UO-31 renal | NCI-H522 lung | HCC-2998 colon | HS 578T breast | MALME-3M melanoma | SNB-75 CNS | DU-145 prostate | CCRF-CEM leukemia | KM12 colon | NCI-H226 lung | IGROV1 ovarian | K-562 leukemia | SF-295 CNS | T-47D breast | SR leukemia | MDA-MB-435 | SNB-19 CNS | NCI-H23 lung | CAKI-1 renal | HOP-92 NSCLC | A498 renal | SK-MEL-28 melanoma | HOP-62 NSCLC | COLO 205 colon | NCI-H460 lung
71.3 µM: HL-60(TB) leukemia
75.2 µM: M14 melanoma
57 µM: HT29 colon
30.6 µM: SK-MEL-5 melanoma
92.2 µM: RXF 393 renal
72.5 µM: BT-549 breast
47.4 µM: MOLT-4 leukemia

C=C(C)C1CC2(C)C(C)CC(OC(=O)/C(C)=C\C)CC2C(OC(=O)/C(C)=C\C)C1O (centres undefined)
43.6 µM: HL-60(TB) leukemia
43.7 µM: SK-MEL-5 melanoma
45.1 µM: SR leukemia
45.8 µM: CCRF-CEM leukemia
48.4 µM: COLO 205 colon
> 100 µM: U251 CNS | M14 melanoma | ACHN renal | SK-MEL-2 melanoma | UACC-62 melanoma | 786-0 renal | TK-10 renal | HCT-15 colon | SN12C renal | SF-539 CNS | MCF7 breast | OVCAR-8 ovarian | OVCAR-5 ovarian | SK-OV-3 ovarian | PC-3 prostate | NCI/ADR-RES ovarian | LOX IMVI melanoma | MDA-MB-231 breast | MDA-N | UO-31 renal | NCI-H522 lung | HCT-116 colon | HCC-2998 colon | HS 578T breast | MALME-3M melanoma | BT-549 breast | SNB-75 CNS | DU-145 prostate | KM12 colon | SW-620 colon | UACC-257 melanoma | EKVX NSCLC | NCI-H226 lung | IGROV1 ovarian | A549 NSCLC | T-47D breast | MDA-MB-435 | SF-268 CNS | SNB-19 CNS | NCI-H23 lung | CAKI-1 renal | OVCAR-4 ovarian | HOP-92 NSCLC | A498 renal | SK-MEL-28 melanoma | NCI-H460 lung | HT29 colon
60.3 µM: MOLT-4 leukemia

C1=Nc2sc3c(c2C2=NCCN12)CCCC3
34.6 µM: NCI/ADR-RES ovarian
30.3 µM: MDA-MB-231 breast
32 µM: EKVX NSCLC
34.1 µM: 786-0 renal
46.6 µM: A498 renal
36.5 µM: HL-60(TB) leukemia
> 100 µM: K-562 leukemia | SR leukemia
24.3 µM: HCC-2998 colon
35.9 µM: OVCAR-5 ovarian
53.2 µM: COLO 205 colon
37.2 µM: HOP-62 NSCLC
41.7 µM: U251 CNS
34.3 µM: SK-MEL-5 melanoma
20.7 µM: SK-MEL-2 melanoma
43.8 µM: SW-620 colon
28.2 µM: LOX IMVI melanoma
32.4 µM: NCI-H460 lung
52.1 µM: SF-268 CNS
33.2 µM: NCI-H226 lung
51.8 µM: HS 578T breast
30.8 µM: ACHN renal | IGROV1 ovarian
44.9 µM: RXF 393 renal
30.5 µM: HCT-116 colon
32.8 µM: HT29 colon
39.6 µM: SF-295 CNS
32.3 µM: OVCAR-3 ovarian
36.4 µM: MOLT-4 leukemia
30.7 µM: TK-10 renal | PC-3 prostate
30.4 µM: HCT-15 colon
29 µM: UACC-62 melanoma
28.7 µM: BT-549 breast
43.3 µM: RPMI-8226 leukemia
33.7 µM: MCF7 breast
39.9 µM: T-47D breast
30.1 µM: UO-31 renal | DU-145 prostate
42.1 µM: OVCAR-4 ovarian
32.1 µM: OVCAR-8 ovarian
35.5 µM: MDA-N
32.9 µM: MALME-3M melanoma
31.3 µM: KM12 colon
31.1 µM: CAKI-1 renal
29.3 µM: NCI-H23 lung
30.9 µM: NCI-H522 lung
34.9 µM: SNB-75 CNS | SNB-19 CNS
41 µM: MDA-MB-435 | SK-MEL-28 melanoma
30 µM: UACC-257 melanoma
